# Data from patent publication US20240261258A1, “Presurgical Perineural Administration of Resiniferatoxin For Reduction of Post-Operative Pain” (Sorrento Therapeutics, Inc., priority 2021, published 2024).
# Key:
# [1] = system: healthy dogs undergoing TPLO surgery; experiment: Post-surgical evaluations (weight bearing, withdrawal reflex, proprioception, VAS, GCPS, injection and surgical site); format: in vivo, dog
# Description: Before the subjects underwent surgery, baseline data including a physical examination, hindlimb motor evaluation, hindlimb sensory evaluation, site of injection evaluation, and surgical site evaluation were collected. During the 8-week post-operative follow-up period on day 1, 2, 3, 14, 28, and 56 all the above parameters were reevaluated by a researcher who was blinded to the treatment.
# After observing the animal in its cage and after evaluating the subject walking, the overall pain was scored using a visual analog scale (VAS) and the short form of the Glasgow composite pain scale (GCPS). The VAS consisted of a straight line 10 cm long with the left end, 0 cm, indicating no pain and the right end, 10 cm, indicating unbearable pain. The user placed a mark on the line that best represented the intensity of the subject's pain. Animals with a VAS greater than 4 cm and a GCPS greater that 6 were considered painful and received intramuscular hydromorphone at 0.1 mg/kg.
# The injection site of RTX or local anesthetic was evaluated by visual examination (normal, red, swollen) and palpation (no pain, mild, severe). The surgical site was evaluated by visual examination (normal, red, swollen) and with the aid of an algometer. With the dog in lateral recumbency, the tip of the algometer was placed on the surgical site and pressure was manually applied until the animal moved the leg. During the baseline data collection, several measurements were taken until 3 measurements were within ±1 Newton (N). The number recorded corresponded to the average of these 3 values. After surgery, the force was applied only once. Data were collected from both the left (treated) and the right (non-treated) hindlimbs.
# The withdrawal reflex and proprioception were assessed and scored as normal, decreased, or absent. The motor function was evaluated by encouraging the dog to stand and walk. Weight bearing standing and walking was scored as: normal, decreased (dog uses the leg but prefers the non-operated leg), or absent (dog avoids using the operated leg).
# [2] = system: SP nerve axons of sciatic and femoral nerves; experiment: Quantification of SP immunopositive nerve fibers; format: in vivo, dog; conditions: for Density of SP nerve axons in the ipsilateral femoral nerve: not statistically significant
# Protocol: FIGS. 2A-J show density of SP nerve axons in representative confocal images of ipsilateral (left; A-D) and contralateral (right; E-H) sciatic nerve from dogs post-TPLO and after different treatment and doses of RTX. Each bar represents the mean±SEM. Data were analyzed by one-way ANOVA followed by Tukey post hoc test; *p<0.05. FIGS. 2I-J are bar graphs of the density of SP nerve axons (density of nerve fibers in mm/mm3) in ipsilateral (I), and contralateral (J) sciatic nerves as measured in n subjects in each group.
# FIGS. 4A-J show the density of SP-immunoreactive axons in representative confocal images showing the presence of […] axons from ipsilateral (A-D) and contralateral (E-H) canine femoral nerves from dogs post-TPLO and after treatment of RTX. Each bar represents the mean±SEM. FIGS. 4I-J are bar graphs of the density of SP nerve axons (density of nerve fibers in mm/mm3) in ipsilateral (I), and contralateral (J) femoral nerves as measured in n subjects in each group.
# FIG. 4 illustrates the effect of RTX on SP density in nerve fibers innervating the ipsilateral (FIG. 4A-D) and contralateral (FIG. 4E-H) femoral nerves from dogs post-TPLO.
# [3] = Group 1 High, 25 μg total F/Sc nerve block
# [4] = Group 2 Low, 6.25 μg total F/Sc nerve block
# [5] = all subjects and timepoints, cutoff for painful
compound,measurement,setting,value
"C=C(C)[C@]12C[C@@H](C)[C@@]34O[C@](Cc5ccccc5)(O[C@@H]1[C@@H]3C=C(COC(=O)Cc1ccc(O)c(OC)c1)C[C@]1(O)C(=O)C(C)=C[C@@H]41)O2 [RTX, resiniferatoxin]",Use of leg within 2 hours of surgery: Intermittent toe touching (dogs/group),[1]; [3],touching: 2/4
same,Use of leg within 2 hours of surgery: Normal (dogs/group),[1]; [3],Normal: 2/4
same,Use of leg within 2 hours of surgery: Absent (dogs/group),[1]; [4],Absent: 1/4
same,Use of leg within 2 hours of surgery: Intermittent toe touching (dogs/group),[1]; [4],touching: 3/4;
same,Use of leg within 2 hours of surgery: Absent (dogs/group),"[1]; Group 3 Local, 50 μg on bone incision + 5 mg bupivacaine block",Absent: 4/4
same,Injection site finding in one subject,"[1]; a subject in group 1, both resolved within 24 hours",minimal reaction upon palpation at day 1 and a small red area at day 3
same,Injection site finding in one subject,[1]; a subject in group 3,small non-painful red area at day 14
same,Injection site appearance,[1]; all animals,normal
same,Withdrawal reflex,[1]; all dogs at all time points,normal
same,Time for redness and swollen areas around the surgical incision to resolve,"[1]; all dogs, regardless of group, after surgery",2 to 3 days
same,GCPS (short form Glasgow composite pain scale) score,[1]; [5],< 6
same,VAS pain score,[1]; [5],< 4 cm
same,Weight bearing scores,"[1]; day 14, 28, and 56, all dogs except for one in group 2 (interdigital cyst)",normal scores
same,Efficacy on post-operative pain,[1]; perineural injection at 6.25 μg and 25 μg RTX total in dogs undergoing TPLO surgery,short-term efficacy in treating post-operative pain
same,Density of SP nerve axons in the contralateral sciatic nerve vs control treatment,"[2]; RTX treated groups, p=0.9122, p=0.9995, p=0.9971",did not affect
same,Density of SP nerve axons in the contralateral femoral nerve,"[2]; RTX treatment, p=0.9907, p=0.8812, p=0.9066",did not have an effect
same,Density of SP axons of the ipsilateral sciatic nerve vs control treatment,"[2]; local administration (50 μg), p=0.0155",statistically significant reduction
same,Density of SP axons of the ipsilateral sciatic nerve vs control treatment,"[2]; peri-neural 3.12 μg per nerve (6.25 μg total), p=0.0335",statistically significant reduction
same,Density of SP nerve axons in the ipsilateral femoral nerve,"[2]; peri-neural 3.12 μg per nerve, p=0.8519",marked trend in reducing density
same,Density of SP axons of the ipsilateral sciatic nerve vs control treatment,"[2]; peri-neural 12.5 μg per nerve (25 μg total), p=0.0112",statistically significant reduction
same,Density of SP nerve axons in the ipsilateral femoral nerve,"[2]; peri-neural 12.5 μg per nerve, p=0.1216",marked trend in reducing density
